Consider six compounds from patent US4065461A, “Amino containing pyridyloxy propanols” (Aktieselskabet Grindstedvaerket, priority 1975, dated 1977).

Like-named read-outs stand apart in the source and are kept apart here.

The nature of one series: in vivo. The settings on record: mouse, iv.
In series [1] the target is T1, β1 -receptors (Felis catus, UniProt Q9TST6).
T1 construct: The test animals were adult cats of either sex; from tissue; host or cells: heart of anaesthetized cat, in vivo
Briefly: β1-adrenoreceptor blockade: antagonism of isoprenaline-induced changes in heart rate in anaesthetized cats. Type of series: in vivo. The settings on record: for ED50: cat, read-out: Approximate ED50 value for β1 -receptor blockade; for potency as antagonist of the β1 -receptors relative to propranolol: compared with propranolol, Table I; for activity as antagonist of the β1 -receptors, in words: conclusion from Table I. An excerpt:
(§1) The examinations thus comprise selective effect against isoprenaline-induced changes in heart rate, which are presumed to be elicited by stimulation of β1 -receptors; and against the reduction in tone in the peripheral vasculature induced by the said agonist is presumed to be due to stimulation of β2 -receptors.
(§2) The test animals were adult cats of either sex.
(§3) The heart rate was derived electronically from the blood pressure in the right carotid artery, and the reduction in tone in the peripheral vasculature was determined by recording changes in hind quarter vascular resistance.
(§4) Each cat was dosed repeatedly at 15 minutes' intervals throughout the experiment with 1 μg isoprenaline as the hydrochloride, the dose of this and the other standard drugs being stated in terms of the base. When constant responses of both heart rate and hind quarter perfusion pressure were obtained, a dose of 4 μg/kg of one of the test compounds was administered intraveneously 2 minutes before the isoprenaline dose. This initial dose of the test compound was administered again 15 minutes later. Thereafter, the test compound was administered at 15 minutes' intervals, each successive dose being twice the preceeding dose, the injection always being given two minutes prior to the next isoprenaline dose. […] In this way, cumulative dose-response curves for the effects of each test compound could be calculated and approximately ED50 values obtained.

Series [2] relates to β1 -receptors. Described as above. Type of series: in vivo. The settings on record: for ratio between these two activities (ED50 β2 / ED50 β1): anaesthetized cats, intravenous, Table I; for selectivity for β1 -receptors versus β2 -receptors, in words: conclusion from Table I.
Excerpt: as §1, §2, §3, §4

The subject of another series is mice. Conditions: for toxicity, in words: conclusion from Table II.
The target of another series is T2, β2 -receptors (Felis catus, UniProt Q9TST5).
T2 construct: The test animals were adult cats of either sex; from tissue; host or cells: hind quarter vasculature of anaesthetized cat, in vivo
T2 sequence (Q9TST5 whole entry): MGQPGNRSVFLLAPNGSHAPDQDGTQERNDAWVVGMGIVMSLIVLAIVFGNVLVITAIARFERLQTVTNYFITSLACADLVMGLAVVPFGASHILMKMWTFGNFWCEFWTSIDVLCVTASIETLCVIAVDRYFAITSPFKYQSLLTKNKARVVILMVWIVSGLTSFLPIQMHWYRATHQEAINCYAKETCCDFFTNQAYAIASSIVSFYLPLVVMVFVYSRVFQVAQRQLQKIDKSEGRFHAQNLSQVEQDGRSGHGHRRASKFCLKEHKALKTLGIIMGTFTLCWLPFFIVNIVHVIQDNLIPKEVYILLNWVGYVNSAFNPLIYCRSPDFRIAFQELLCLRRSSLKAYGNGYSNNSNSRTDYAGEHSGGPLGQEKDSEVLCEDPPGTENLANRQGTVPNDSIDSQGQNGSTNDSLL
The series can be described thus: β2-adrenoreceptor blockade: antagonism of isoprenaline-induced reduction in tone in the peripheral vasculature (hind quarter perfusion pressure) in anaesthetized cats. In kind it is in vivo. The settings on record: cat, read-out: Approximate ED50 value for β2 -receptor blockade.
Excerpt: as §1, §2, §3, §4

Series [3] has as its system β1 -receptors and β2 -receptors. The settings on record: background; cited from earlier work.
Setting [4] is: anaesthetized cats, intravenous, cumulative doses, isoprenaline-induced change in heart rate.
The mark [5] stands for this setting: anaesthetized cats, intravenous, cumulative doses, isoprenaline-induced change in hind quarter perfusion pressure.

What is called LD50 is the dose expected to kill half of the subjects tested. Read a low LD50 as a more toxic substance. The term ED50 denotes the midpoint of the dose-response relation.

T1 sequence (Q9TST6 whole entry): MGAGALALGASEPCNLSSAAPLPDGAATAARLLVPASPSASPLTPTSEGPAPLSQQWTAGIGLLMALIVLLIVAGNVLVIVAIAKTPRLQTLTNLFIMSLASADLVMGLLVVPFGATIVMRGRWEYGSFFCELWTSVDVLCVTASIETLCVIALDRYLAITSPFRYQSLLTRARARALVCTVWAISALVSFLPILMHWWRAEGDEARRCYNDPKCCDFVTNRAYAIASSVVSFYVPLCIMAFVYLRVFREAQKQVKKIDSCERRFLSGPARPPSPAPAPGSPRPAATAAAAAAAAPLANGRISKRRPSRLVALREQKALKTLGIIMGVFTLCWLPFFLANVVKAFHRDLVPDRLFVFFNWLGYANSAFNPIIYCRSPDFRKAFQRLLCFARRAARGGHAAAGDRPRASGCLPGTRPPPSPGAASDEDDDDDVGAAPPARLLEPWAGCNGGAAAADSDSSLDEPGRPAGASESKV

The compound `CC(C)NCC(O)COc1cccnc1` (centres unmarked) [Compound 1, 1-Isopropylamino-3-(3-pyridyloxy)-2-propanol] had a 50% lethal dose (LD50) in “in vivo” of 261 mg/kg. Moreover, the ED50 at β1 -receptors [1] (iv) came to 0.007 mg/kg. Further, on β1 -receptors [1], the “potency as antagonist of the β1 -receptors relative to propranolol” value (“potency … -receptors relative to propranolol” for short) is “greater than” and the “activity as antagonist of the β1 -receptors, in words” value is recorded as “extremely active”. Moreover, in the series on β1 -receptors [2], the “ratio between these two activities (ED50 β2 / ED50 β1)” value stood at 207.1 and the “selectivity for β1 -receptors versus β2 -receptors, in words” value (“selectivity for β1 -receptors versus β2” for short) is listed as “outstanding selectivity as β1 -adrenoblocking agent”. The “toxicity, in words” value in the series on mice (intravenous, mice) is listed as “low toxicity”. The same compound yielded an LD50 in the series with mice (mice, female, intravenous) of 285.2 mg/kg. In addition, on β2 -receptors (iv), the ED50 is 1.45 mg/kg.

As for `CC(C)NCC(O)COc1cccnc1N` (centres unmarked) [Compound 2, 1-Isopropylamino-3-[(2-amino-3-pyridyl)oxy]-2-propanol], the LD50 in “in vivo” was 203 mg/kg; in the series with mice (mouse, in vivo, iv) it was 192.0 mg/kg. The values for the ED50 on β1 -receptors [1] (setting [4]) and on β2 -receptors (setting [5]) were 0.08 mg/kg and 3.5 mg/kg, respectively. Besides, the “potency … -receptors relative to propranolol” value on β1 -receptors [1] is on record as “approximately equal to”. The “ratio between these two activities (ED50 β2 / ED50 β1)” value with β1 -receptors [2] was 43.8. Further, the “selectivity for β1 -receptors versus β2” value in the series on β1 -receptors [2] is reported as “high degree of selectivity”. For the same compound, the “toxicity, in words” value with mice (intravenous, mice) is “somewhat less toxic”.

In the case of `CC(=O)Nc1ccc(OCC(O)CNC(C)C)cc1` (centres unmarked) [Compound 3, practolol], the LD50 in the series “in vivo” came out at 41.6 mg/kg; in the series with mice (mouse, in vivo, iv), 31.6 mg/kg. For the same compound, in series [3], the “receptor blocking profile, in words” value was “substantial blocking activity on the β1 -receptors and not on the β2 -receptors”. Moreover, the values for the ED50 at β1 -receptors [1] (setting [4]) and on β2 -receptors (setting [5]) were 0.36 mg/kg and 10.4 mg/kg, respectively. In addition, the “potency … -receptors relative to propranolol” value on β1 -receptors [1] was “much less active than propranolol”. Also, in the series on β1 -receptors [2], the “ratio between these two activities (ED50 β2 / ED50 β1)” value is given as 28.9. For the same compound, the “selectivity for β1 -receptors versus β2” value with β1 -receptors [2] is recorded as “approximately thirty times more selectivity against the β1 -receptors than against β2 -receptors”.

Take `CC(C)NCC(O)COc1cccc2ccccc12` (centres unmarked) [Compound 4, 1-(isopropylamino)-3-(1-naphthyloxy)-2-propanol]: the “receptor blocking profile, in words” value in series [3] is “act more or less indiscriminately on both types of β-receptors”.

For the compound `Cc1ccc(OCC(O)CNC(C)C)cn1` (centres unmarked) [Compound 5], the LD50 came out at 285 mg/kg in the series “in vivo” and 239.4 mg/kg in the series with mice (mice, female, intravenous). For the same compound, the figures for the ED50 at β1 -receptors [1] (iv) and at β2 -receptors (iv) were 0.7 mg/kg and more than 4.1 mg/kg, respectively. Also, the “activity as antagonist of the β1 -receptors, in words” value on β1 -receptors [1] is on record as “not very active”. Moreover, the “ratio between these two activities (ED50 β2 / ED50 β1)” value in the series with β1 -receptors [2] is more than 5.8. In addition, the “selectivity for β1 -receptors versus β2” value in the series on β1 -receptors [2] is given as “rather low degree of selectivity”.

For the compound `CC(C)NCC(O)COc1cccnc1Cl` (centres unmarked) [Compound 6], the LD50 in the series “in vivo” stood at 165 mg/kg; in the series with mice (mice, female, intravenous) it was 180.2 mg/kg. The 50% effective dose (ED50) at β1 -receptors [1] (iv) was 0.03 mg/kg; at β2 -receptors (iv), 1.35 mg/kg. Also, the “ratio between these two activities (ED50 β2 / ED50 β1)” value in the series with β1 -receptors [2] worked out at 45.0.
